In the supplement of paper PMC10307832:

Key:
Experiment in all cases: relative viability (nuclei count vs DMSO), 5 days (fraction); higher = more cells survive
[1] = compound: O=S(=O)(c1ccccc1)N(CC(F)(F)F)c1ccc(C(O)(C(F)(F)F)C(F)(F)F)cc1 + CS(=O)(=O)N1CCN(Cc2cc3nc(-c4cccc5[nH]ncc45)nc(N4CCOCC4)c3s2)CC1 [Pictilisib] (partner 1 µM)
Summary of the method: (§1)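 Values are medians from duplicate plates. Each reflects relative viability, defined as the nuclei count of treated wells over that of vehicle wells. Lung cancer cell lines in 1536-well plates were pin-tool dosed one day after seeding with one drug alone or with a fixed anchor-drug dose plus five library-drug doses (not always all listed) in √10 steps, then fixed, stained and imaged at 4× after 5 days.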

[2] = compound: C1=CC2=C(C=CC(=C2)C=C3C(=O)NC(=NCC4=CC=CS4)S3)N=C1 [RO-3306] + CS(=O)(=O)CCNCc1ccc(-c2ccc3ncnc(Nc4ccc(OCc5cccc(F)c5)c(Cl)c4)c3c2)o1 [Lapatinib] (partner 2 µM)
Summary of the method: as §1

[3] = compound: O=S(=O)(c1ccccc1)N(CC(F)(F)F)c1ccc(C(O)(C(F)(F)F)C(F)(F)F)cc1 + CC(=O)Nc1cccc(-n2c(=O)n(C3CC3)c(=O)c3c(Nc4ccc(I)cc4F)n(C)c(=O)c(C)c32)c1 [Trametinib] (partner 0.02 µM)
Summary of the method: as §1

[4] = compound: C1=CC2=C(C=CC(=C2)C=C3C(=O)NC(=NCC4=CC=CS4)S3)N=C1 [RO-3306] + N=C(N)NC(=N)NCCc1ccccc1 [Phenformin] (partner 250 µM)
Summary of the method: as §1

Row | Cell Line | relative viability ([1]; first compound 0.8 µM) | relative viability ([1]; first compound 2.53 µM) | relative viability ([1]; first compound 8 µM) | relative viability ([2]; first compound 0.01 µM) | relative viability ([2]; first compound 0.03162 µM) | relative viability ([2]; first compound 0.1 µM) | relative viability ([2]; first compound 0.3162 µM) | relative viability ([2]; first compound 1 µM) | relative viability ([3]; first compound 0.8 µM) | relative viability ([3]; first compound 2.53 µM) | relative viability ([3]; first compound 8 µM) | relative viability ([4]; first compound 0.01 µM) | relative viability ([4]; first compound 0.03162 µM) | relative viability ([4]; first compound 0.1 µM) | relative viability ([4]; first compound 0.3162 µM) | relative viability ([4]; first compound 1 µM)
1 | 201T | 0.632 | 0.628 | 0.82 | 1.04 | 0.954 | 1.01 | 1.04 | 0.823 | 0.712 | 0.666 | 0.681 | 0.499 | 0.355 | 0.46 | 0.414 | 0.369
2 | A549 | 0.609 | 0.473 | 0.567 | 1.16 | 0.953 | 0.955 | 1.05 | 0.971 | – | – | – | 0.225 | 0.802 | – | 0.124 | 1.12
3 | A-427 | 0.708 | 0.677 | 0.822 | 1.08 | 0.986 | 1.05 | 1.03 | 0.448 | 0.722 | 0.645 | 0.682 | 0.339 | 0.241 | 0.312 | 0.295 | 0.243
4 | ABC-1 | 0.7 | 0.602 | 0.755 | 1.25 | 1.28 | 1.17 | 1.16 | 1.05 | – | – | – | 0.238 | 0.222 | 0.268 | 0.27 | 0.232
5 | BEN | 0.585 | 0.533 | 0.616 | 0.726 | 0.759 | 0.754 | 0.8 | 0.744 | 1.05 | 0.888 | 1.02 | 0.298 | 0.266 | 0.26 | 0.252 | 0.263
6 | CAL-12T | – | 0.342 | 0.542 | 0.61 | – | – | 0.73 | 0.591 | 0.247 | 0.265 | 0.238 | 0.56 | 0.445 | 0.511 | 0.597 | 0.674
7 | COR-L23 | 1.23 | 0.796 | 0.901 | 0.708 | – | 0.942 | 1.06 | 1.18 | 0.657 | 0.583 | 0.539 | 0.475 | 0.391 | 0.455 | 0.409 | 0.435
8 | COR-L 105 | 0.44 | 0.397 | 0.418 | 0.34 | 0.351 | 0.334 | 0.333 | 0.314 | 0.39 | 0.424 | 0.382 | 0.499 | 0.386 | 0.417 | 0.517 | 0.429
9 | Calu-6 | 0.839 | 0.851 | 0.691 | 1.27 | 1.12 | 0.981 | 1.18 | 1.06 | – | – | – | – | – | – | – | –
10 | ChaGo-K-1 | 0.647 | 0.693 | 1.24 | – | – | – | – | – | 0.998 | 0.862 | 0.884 | 0.579 | 0.404 | 0.447 | 0.443 | 0.337
11 | EBC-1 | 0.286 | 0.266 | 0.284 | 0.206 | 0.264 | 0.211 | 0.193 | 0.218 | – | – | – | – | – | – | – | –
12 | EKVX | 0.367 | 0.363 | 0.303 | 0.173 | 0.187 | 0.237 | 0.192 | 0.148 | 0.3 | 0.272 | 0.324 | 0.245 | 0.196 | 0.218 | 0.217 | 0.22
13 | EMC-BAC-2 | 0.626 | 0.561 | 0.634 | 0.943 | 0.722 | 0.916 | 0.892 | 0.871 | 0.813 | 0.735 | 0.758 | 0.516 | 0.401 | 0.536 | 0.497 | 0.508
14 | EPLC-272H | 0.316 | 0.302 | 0.35 | 0.789 | 0.595 | 0.803 | 0.768 | 0.849 | 0.274 | 0.289 | 0.269 | 0.312 | 0.399 | 0.308 | 0.25 | 0.317
15 | IA-LM | 0.355 | 0.305 | 0.524 | 0.816 | – | 0.665 | 0.698 | 0.388 | – | – | – | – | – | – | – | –
16 | LCLC-103H | 0.536 | 0.592 | 0.651 | – | – | – | – | – | 0.71 | 0.731 | 0.739 | 0.36 | 0.27 | 0.298 | 0.342 | 0.328
17 | NCI-H441 | 0.523 | 0.401 | 0.495 | – | – | – | – | – | 0.387 | 0.348 | 0.423 | 0.689 | 0.474 | 0.783 | 0.864 | 0.788
18 | NCI-H522 | – | – | – | – | – | – | – | – | 0.607 | 0.781 | 0.689 | 0.599 | 0.615 | 0.699 | 0.666 | 0.733
19 | NCI-H1299 | 0.875 | 0.78 | 0.663 | 1 | 1.03 | 0.977 | 0.977 | 0.986 | – | – | – | – | – | – | – | –
20 | NCI-H1563 | 0.734 | 0.655 | 0.581 | 1.03 | 0.911 | 0.862 | 0.979 | 0.922 | – | – | – | 0.643 | 0.639 | 0.641 | 0.631 | 0.666
21 | NCI-H1623 | – | – | – | – | – | – | – | – | – | – | – | 0.61 | 0.597 | 0.579 | 0.58 | 0.568
22 | NCI-H1648 | – | – | – | – | – | – | – | – | 0.628 | 0.369 | 0.44 | – | – | – | – | –
23 | NCI-H1703 | 0.253 | 0.211 | 0.218 | 1.25 | 0.858 | 1.03 | 0.831 | 1.6 | – | – | – | – | – | – | – | –
24 | NCI-H2342 | – | – | – | – | – | – | – | – | 0.917 | 0.854 | 0.861 | 0.591 | 0.519 | 0.527 | 0.569 | 0.586
25 | SW 900 | – | – | – | – | – | – | – | – | 0.787 | 0.828 | 0.607 | 0.636 | 0.539 | 0.506 | 0.465 | 0.502
